Test results reported in PubChem BioAssay AID1259407 (Chemical Carcinogenesis Research Information System (CCRIS), 2018).
Activity calls are given as the source filed them. No rule for the calls is given here.

Tested on: CCRIS mutagenicity, Ames/micronucleus/aberration tests
Experiment: CCRIS mutagenicity studies
[1] = Test System: AMES SALMONELLA TYPHIMURIUM, Strain/Indicator: TA98, Metabolic Activation: HAMSTER, LIVER, S-9, AROCLOR 1254 (10%), Method: PREINCUBATION
[2] = Test System: AMES SALMONELLA TYPHIMURIUM, Strain/Indicator: TA98, Metabolic Activation: NONE, Method: PREINCUBATION
[3] = Test System: AMES SALMONELLA TYPHIMURIUM, Strain/Indicator: TA98, Metabolic Activation: RAT, LIVER, S-9, AROCLOR 1254 (10%), Method: PREINCUBATION
[4] = Test System: AMES SALMONELLA TYPHIMURIUM, Strain/Indicator: TA100, Metabolic Activation: HAMSTER, LIVER, S-9, AROCLOR 1254 (10%), Method: PREINCUBATION
[5] = Test System: AMES SALMONELLA TYPHIMURIUM, Strain/Indicator: TA100, Metabolic Activation: NONE, Method: PREINCUBATION
[6] = Test System: AMES SALMONELLA TYPHIMURIUM, Strain/Indicator: TA100, Metabolic Activation: RAT, LIVER, S-9, AROCLOR 1254 (10%), Method: PREINCUBATION
[7] = Test System: AMES SALMONELLA TYPHIMURIUM, Strain/Indicator: TA1535, Metabolic Activation: HAMSTER, LIVER, S-9, AROCLOR 1254 (10%), Method: PREINCUBATION
[8] = Test System: AMES SALMONELLA TYPHIMURIUM, Strain/Indicator: TA1535, Metabolic Activation: NONE, Method: PREINCUBATION
[9] = Test System: AMES SALMONELLA TYPHIMURIUM, Strain/Indicator: TA1535, Metabolic Activation: RAT, LIVER, S-9, AROCLOR 1254 (10%), Method: PREINCUBATION
[10] = Test System: AMES SALMONELLA TYPHIMURIUM, Strain/Indicator: TA1537, Metabolic Activation: HAMSTER, LIVER, S-9, AROCLOR 1254 (10%), Method: PREINCUBATION
[11] = Test System: AMES SALMONELLA TYPHIMURIUM, Strain/Indicator: TA1537, Metabolic Activation: NONE, Method: PREINCUBATION
[12] = Test System: AMES SALMONELLA TYPHIMURIUM, Strain/Indicator: TA1537, Metabolic Activation: RAT, LIVER, S-9, AROCLOR 1254 (10%), Method: PREINCUBATION
[13] = Test System: AMES SALMONELLA TYPHIMURIUM, Strain/Indicator: TA100, Metabolic Activation: NONE, Method: STANDARD PLATE
[14] = Test System: AMES SALMONELLA TYPHIMURIUM, Strain/Indicator: TA1537, Metabolic Activation: RAT LIVER S-9, PHENOBARBITAL AND BETA-NAPHTHOFLAVONE, Method: PREINCUBATION
[15] = Test System: E.COLI, Strain/Indicator: WP2UVRA, Metabolic Activation: NONE, Method: PREINCUBATION
[16] = Test System: E.COLI, Strain/Indicator: WP2UVRA, Metabolic Activation: RAT LIVER S-9, PHENOBARBITAL AND BETA-NAPHTHOFLAVONE, Method: PREINCUBATION

Measured: mutagenic call

CCCC(=O)c1cc(O)c(O)cc1O
active: [1] active; positive | [6] active; positive | [12] active; positive
inactive: [2] inactive; negative | [3] inactive; negative | [4] inactive; negative | [5] inactive; negative | [7] inactive; negative | [8] inactive; negative | [9] inactive; negative | [10] inactive; negative | [11] inactive; negative

Nc1c(F)cc(-c2cc(F)c(N)c(F)c2)cc1F
active: Test System: UDS HUMAN CELLS, Strain/Indicator: THY INCORP (NON-S-PHASE), Metabolic Activation: RAT, LIVER, S-9, PHENOBARBITAL, Method: LIQUID SCINTILLATION COUNTING active; positive

CC(Br)CBr (stereo not given)
inactive: Test System: AMES SALMONELLA TYPHIMURIUM, Strain/Indicator: TA97, Metabolic Activation: NONE, Method: STANDARD PLATE inactive; negative | Test System: AMES SALMONELLA TYPHIMURIUM, Strain/Indicator: TA97, Metabolic Activation: RAT, LIVER, S-9, PCB, Method: STANDARD PLATE inactive; negative | [2] inactive; negative | Test System: AMES SALMONELLA TYPHIMURIUM, Strain/Indicator: TA98, Metabolic Activation: RAT LIVER S-9, PHENOBARBITAL AND BETA-NAPHTHOFLAVONE, Method: PREINCUBATION inactive; negative | [5] inactive; negative | [13] inactive; negative | Test System: AMES SALMONELLA TYPHIMURIUM, Strain/Indicator: TA100, Metabolic Activation: RAT LIVER S-9, PHENOBARBITAL AND BETA-NAPHTHOFLAVONE, Method: PREINCUBATION inactive; negative | Test System: AMES SALMONELLA TYPHIMURIUM, Strain/Indicator: TA100, Metabolic Activation: RAT, LIVER, S-9, PCB, Method: STANDARD PLATE inactive; negative | Test System: AMES SALMONELLA TYPHIMURIUM, Strain/Indicator: TA1534, Metabolic Activation: HOST-MEDIATED, Method: IN VIVO inactive; negative | [8] inactive; negative | [11] inactive; negative | [14] inactive; negative | Test System: AMES SALMONELLA TYPHIMURIUM, Strain/Indicator: TA1950, Metabolic Activation: HOST-MEDIATED, Method: IN VIVO inactive; negative | [15] inactive; negative | [16] inactive; negative
active: Test System: AMES SALMONELLA TYPHIMURIUM, Strain/Indicator: TA100, Metabolic Activation: RAT, LIVER, MICROSOMES, PHENOBARBITAL, NADPH COFACTORS, Method: STANDARD PLATE active; positive | Test System: AMES SALMONELLA TYPHIMURIUM, Strain/Indicator: TA100, Metabolic Activation: RAT, LIVER, MICROSOMES, PHENOBARBITAL, Method: STANDARD PLATE active; positive | Test System: UDS RAT HEPATOCYTES, Strain/Indicator: THY INCORP, Metabolic Activation: NONE active; positive

O=[N+]([O-])c1ccc2c3ccccc3c3ccc([N+](=O)[O-])c4ccc1c2c43
active: End Point: In vitro micronucleus, Test System: CHL/IU cells, Metabolic Activation: None active; positive | End Point: In vitro micronucleus, Test System: HepG2 cells, Metabolic Activation: None active; positive | Test System: Chinese hamster lung cells/HPRT locus, Strain/Indicator: CHL/IU, Metabolic Activation: None active; positive | Test System: Human liver cells/HPRT locus, Strain/Indicator: HepG2, Metabolic Activation: None active; positive

Cc1cc(N)c(C)c2c1[nH]c1ccccc12
inactive: Test System: AMES SALMONELLA TYPHIMURIUM, Strain/Indicator: TA98, Metabolic Activation: NONE, Method: STANDARD PLATE inactive; negative | [13] inactive; negative | Test System: AMES SALMONELLA TYPHIMURIUM, Strain/Indicator: TA100, Metabolic Activation: RAT LIVER S-9, AROCLOR 1254, Method: STANDARD PLATE inactive; negative
active: Test System: AMES SALMONELLA TYPHIMURIUM, Strain/Indicator: TA98, Metabolic Activation: RAT LIVER S-9, AROCLOR 1254, Method: STANDARD PLATE active; positive

CCN(CC)CCO
inactive: [1] inactive; negative | [2] inactive; negative | [3] inactive; negative | [4] inactive; negative | [5] inactive; negative | [6] inactive; negative | [7] inactive; negative | [8] inactive; negative | [9] inactive; negative | [10] inactive; negative | [11] inactive; negative | [12] inactive; negative

CCCC(Cl)C(=O)S (stereo not given)
active: Test System: AMES SALMONELLA TYPHIMURIUM, Strain/Indicator: TA1535, Metabolic Activation: NONE active; positive

Cc1c(N=C=O)cccc1N=C=O
inactive: End Point: IN VITRO CHROMOSOMAL ABERRATIONS, Test System: CHO CELLS, Metabolic Activation: RAT, LIVER, S-9, AROCLOR 1254 inactive; negative; precipitation occurred at 500 ug/ml | Test System: AMES SALMONELLA TYPHIMURIUM, Strain/Indicator: TA97, Metabolic Activation: HAMSTER, LIVER, S-9, AROCLOR 1254 (10%), Method: PREINCUBATION inactive; negative | Test System: AMES SALMONELLA TYPHIMURIUM, Strain/Indicator: TA97, Metabolic Activation: NONE, Method: PREINCUBATION inactive; negative | Test System: AMES SALMONELLA TYPHIMURIUM, Strain/Indicator: TA97, Metabolic Activation: RAT, LIVER, S-9, AROCLOR 1254 (10%), Method: PREINCUBATION inactive; negative | [2] inactive; negative | [5] inactive; negative | [6] inactive; negative | [7] inactive; negative | [8] inactive; negative | Test System: AMES SALMONELLA TYPHIMURIUM, Strain/Indicator: TA1535, Metabolic Activation: RAT LIVER S-9, PHENOBARBITAL AND BETA-NAPHTHOFLAVONE, Method: PREINCUBATION inactive; negative | [9] inactive; negative | [11] inactive; negative | Test System: AMES SALMONELLA TYPHIMURIUM, Strain/Indicator: TA1537, Metabolic Activation: RAT LIVER S-9, AROCLOR 1254 (10 OR 30%), Method: STANDARD PLATE inactive; negative | [14] inactive; negative | [15] inactive; negative | [16] inactive; negative
active: End Point: IN VITRO CHROMOSOMAL ABERRATIONS, Test System: CHL CELLS, Metabolic Activation: RAT, LIVER, S-9, SODIUM PHENOBARBITAL AND 5,6-BENZOFLAVONE active; positive (ploidy changes); authors report equivocal results for structural chang | [1] active; positive | Test System: AMES SALMONELLA TYPHIMURIUM, Strain/Indicator: TA98, Metabolic Activation: RAT LIVER S-9 AROCLOR 1254 (10 OR 30%), Method: STANDARD PLATE active; positive | [3] active; positive | [4] active; positive | Test System: MOUSE LYMPHOMA, Strain/Indicator: L5178Y (TK+/TK-), Metabolic Activation: NONE, Method: SUSPENSION/PLATE active; positive | Test System: MOUSE LYMPHOMA, Strain/Indicator: L5178Y (TK+/TK-), Metabolic Activation: RAT, LIVER, S-9, AROCLOR 1254, Method: SUSPENSION/PLATE active; positive
